# Results published in PMC11724075, “Small-molecule-induced ERBB4 activation to treat heart failure” (Nature Communications, 2025).
# Several values for one entry are separate records, joined by “and”; a condition that tells them apart may be missing. Identical values can stand only once.
# How the values were obtained:
# [1] = test system: iAMs; assay: H2O2-induced cell death assay in iAMs (Toxilight), also with LY294002; conditions: for total cell death of iAMs (percentage of total dead cells): 4 h; for total cell death of iAMs (percentage of total dead cells) / total cell death of iAMs: single replicates
# Description: Subsequently, H2O2 (100 µM; Merck, H1009) was added and the cells were incubated for 4 h at 37 °C. All wells contained DMSO at a final concentration of 0.9%. […] After incubation at RT for 5 min, luminescence was measured using the Luminoskan Ascent.
# [2] = test system: HCFs; assay: RT-qPCR on signaling pathway genes in HCFs; type: cell-based, human; conditions: single replicates
# Description: RNA was extracted using Nucleospin RNA XS (Macherey-Nagel, 740902.50) according to the manufacturer’s instructions. For cDNA synthesis, total RNA was added to a mixture containing buffer with random hexamers and reverse transcriptase enzyme (TaqMan reverse transcription reagents, Applied biosystems, N8080234) after which samples were incubated for 10 min at 25 °C, 30 min at 48 °C, and 5 min at 95 °C. RT-qPCR was performed on QuantStudio 3 Real-time PCR system (Applied Biosystems) using Taqman Universal PCR Master Mix (Applied Biosystems, 4304437) and Taqman primers according to the manufacturer’s instructions. Settings were as follows: […] followed by 10 min at 95 °C, 40 cycles (45 cycles for ERBB4) of denaturation at 95 °C for 15 s, and 1 min at 60 °C. All reactions were run in duplicate, and all data were normalized against housekeeping genes glyceraldehyde-3-phosphate dehydrogenase (GAPDH), beta-actin (ACTB), or phosphoglycerate kinase 1 (PGK1). Expression levels were calculated using the comparative cycle method and expressed as fold change (FC) to appropriate controls. The following TaqMan primers were used (Thermo Fisher Scientific): GAPDH (Hs02758991_g1, Mm99999915_g1 and Rn01775763_g1), PGK1 (Hs99999906_m1), ID2 (Hs04187239_m1), BMPR1B (Hs01010965_m1), CACNA2D4 (Hs00297782_m1), DUSP2 (Hs00358879_m1), NR4A1 (Hs00374226_m1), SGK1 (Hs00178612_m1), COL1A1 (Mm00801666_g1), COL3A1 (Hs00943809_m1 and Mm00802305_g1), ERBB4 (Hs00955525_m1 and Rn00572447_m1), ACTB (Mm02619580_g1) and ANP (Mm01255747_g1).
# [3] = test system: mouse model of AngII-induced myocardial fibrosis; assay: AngII-induced myocardial fibrosis mouse model, 4 weeks, Masson's trichrome fibrosis, wild type mice; type: in vivo; design: key to Total fibrosis male in vivo WT with EF-1 / Total fibrosis female in vivo WT with EF-1 / Total fibrosis male in vivo WT with NA-1: fibrotic (blue-stained) area / total area
# Description: Four weeks after implantation, cardiac ultrasound was performed, mice were euthanized, and hearts were collected. A similar set-up was used for the 1-week study (Alzet, model 1007D) in male mice (n = 9-10 mice in every group).
# Hearts were fixed in 4% PFA, paraffin-embedded, and cut into 5-µm sections. Images were acquired with an Olympus BX43 microscope (Olympus Stream Motion Software) or a CELENA® S Digital Imaging System and analyzed with ImageJ 2.14.0 software. Collagen distribution was visualized by Masson’s trichrome staining. Cardiac total fibrosis was expressed as the ratio of positively stained fibrotic area (blue) to the total area and perivascular fibrosis as the ratio of fibrotic area to vascular lumen area. Scar size was determined by measuring the scar length over the […]. Hypertrophy and vascularisation were visualized via an isolectin-B4/WGA/DAPI staining. Quantification was performed by a person blinded to the treatment protocol.
# [4] = female wild type mice, AngII/EF-1 group, individual animals
# [5] = male wild type mice, AngII/EF-1 group, individual animals
# [6] = male wild type mice, EF-1 group (no AngII), individual animals
compound,measurement,setting,value
O=C(NC1CC1)C(Sc1nc2ccccc2c(=O)n1C1CCCC1)c1ccccc1 (centres unmarked) [EF-1],total cell death of iAMs (percentage of total dead cells),"[1]; EF-1 + SiERBB4, 1e-6 M, H2O2 100 µM",68.0221 and 60.0225 and 62.2886
same,total cell death of iAMs (percentage of total dead cells),"[1]; EF-1 + SiERBB4, 4e-6 M, H2O2 100 µM",72.51 and 56.29 and 70.83
same,total cell death of iAMs (percentage of total dead cells),"[1]; EF-1 + SiERBB4, 8e-6 M, H2O2 100 µM",69.73 and 50.25 and 72.39
same,total cell death of iAMs (percentage of total dead cells),"[1]; EF-1 + SiERBB4, 1.6e-5 M, H2O2 100 µM",67.67 and 53.83 and 80.13
same,total cell death of iAMs (percentage of total dead cells),"[1]; EF-1 + SiERBB4, 3.2e-5 M, H2O2 100 µM",64.65 and 55.01 and 72.56
same,total cell death of iAMs (percentage of total dead cells),"[1]; EF-1 + SiScr, 1e-6 M, H2O2 100 µM",62.2886 and 68.0221 and 60.0225
same,total cell death of iAMs (percentage of total dead cells),"[1]; EF-1 + SiScr, 4e-6 M, H2O2 100 µM",34.38 and 49.85 and 69.84
same,total cell death of iAMs (percentage of total dead cells),"[1]; EF-1 + SiScr, 8e-6 M, H2O2 100 µM",29.53 and 51.53 and 63.09
same,total cell death of iAMs (percentage of total dead cells),"[1]; EF-1 + SiScr, 1.6e-5 M, H2O2 100 µM",23.16 and 29.77 and 55.38
same,total cell death of iAMs (percentage of total dead cells),"[1]; EF-1 + SiScr, 3.2e-5 M, H2O2 100 µM",15.16 and 25.21 and 30.15
same,total cell death of iAMs,"[1]; H2O2/EF-1 (32 µM) + LY294002 (20 µM, 10 min pretreatment)",37.778 and 30.0948 and 30.3358 and 33.2686
same,total cell death of iAMs,"[1]; H2O2/EF-1 (32 µM), without LY294002",27.2571 and 19.0561 and 18.1394 and 25.7513
same,decrease of H2O2-induced cardiomyocyte cell death,[1]; at its highest dose,more than 75%
same,"BMPR1B mRNA, normalized FC compared to vehicle",[2],0.7674 and 0.7715 and 0.7478 and 0.6131
same,"CACNA2D4 mRNA, normalized FC compared to vehicle",[2],0.6726 and 0.5139 and 0.5641 and 0.6199
same,"DUSP2 mRNA, normalized FC compared to vehicle",[2],0.652 and 0.6672 and 0.8266 and 0.7945
same,"ID2 mRNA, normalized FC compared to vehicle",[2],0.7995 and 0.6935 and 0.711 and 0.7833
same,"NR4A1 mRNA, normalized FC compared to vehicle",[2],0.6281 and 0.8412 and 0.7864 and 0.7806
same,"SGK1 mRNA, normalized FC compared to vehicle",[2],0.5165 and 0.6795 and 0.6992 and 0.5618
same,Perivascular fibrosis female in vivo WT with EF-1,[3]; [4],1.006 and 0.6567 and 0.4251 and 0.5106 and 0.5866 and 0.41 and 0.775 and 0.451
same,Total fibrosis female in vivo WT with EF-1,[3]; [4],0.56 and 1.25 and 0.75 and 1.11 and 0.5 and 0.41 and 1.42 and 0.66
same,effect on AngII-induced interstitial and perivascular fibrosis (in words),"[3]; male and female wild type mice, EF-1 2 mg/kg/day, 4 weeks",significantly prevented both interstitial and perivascular fibrosis
same,Perivascular fibrosis male in vivo WT with EF-1,[3]; [5],2.195 and 0.9604 and 0.7595 and 1.184 and 2.0179
same,Total fibrosis male in vivo WT with EF-1,[3]; [5],1.541 and 0.4939 and 0.5555 and 0.9884 and 1.07
same,Perivascular fibrosis male in vivo WT with EF-1,[3]; [6],0.7074 and 0.782 and 0.418 and 0.8908
same,Total fibrosis male in vivo WT with EF-1,[3]; [6],0.8052 and 0.5165 and 0.1613 and 0.2053
Cc1sc2nc(SC(C)C(=O)NCc3ccc4c(c3)OCO4)n(-c3ccccc3)c(=O)c2c1C (centres unmarked) [NA-1],effect on cardiomyocyte survival (in words),[1]; H2O2 100 µM,did not have a significant effect on cardiomyocyte survival
same,total cell death of iAMs (percentage of total dead cells),"[1]; NA-1, 1e-6 M, H2O2 100 µM",60.0225 and 62.2886 and 68.0221
same,total cell death of iAMs (percentage of total dead cells),"[1]; NA-1, 4e-6 M, H2O2 100 µM",64.78 and 60.57 and 53.32 and 58.95
same,total cell death of iAMs (percentage of total dead cells),"[1]; NA-1, 8e-6 M, H2O2 100 µM",63.16 and 63.84 and 49.27 and 56.61
same,total cell death of iAMs (percentage of total dead cells),"[1]; NA-1, 1.6e-5 M, H2O2 100 µM",61.57 and 64.49 and 50.09 and 59.17
same,total cell death of iAMs (percentage of total dead cells),"[1]; NA-1, 3.2e-5 M, H2O2 100 µM",63.24 and 58.6 and 49.06 and 56.03
same,Perivascular fibrosis male in vivo WT with NA-1,"[3]; AngII/NA-1, individual animals",1.271 and 2.289 and 2.187 and 2.2768
same,Total fibrosis male in vivo WT with NA-1,"[3]; AngII/NA-1, individual animals",7.18 and 11.9815 and 8.108 and 8.95
same,effect on AngII-induced interstitial and perivascular fibrosis (in words),"[3]; male wild type mice, NA-1 2 mg/kg/day",did not significantly prevent interstitial or perivascular AngII-induced fibrosis
neuregulin-1 [NRG1],"BMPR1B mRNA, normalized FC compared to vehicle",[2],0.8467 and 0.8788 and 0.6722 and 0.547
same,"CACNA2D4 mRNA, normalized FC compared to vehicle",[2],0.587 and 0.7244 and 0.5309 and 0.2575
same,"DUSP2 mRNA, normalized FC compared to vehicle",[2],0.9928 and 0.6481 and 0.6778 and 0.7386
same,"ID2 mRNA, normalized FC compared to vehicle",[2],0.8573 and 0.8679 and 0.8306 and 0.7992
same,"NR4A1 mRNA, normalized FC compared to vehicle",[2],0.5297 and 0.9275 and 0.7063 and 0.8111
same,"SGK1 mRNA, normalized FC compared to vehicle",[2],0.7797 and 0.9219 and 0.8239 and 0.6521
